Laboratory results from patent US20080254042A1, “Novel Use of Prrp and Receptor Thereof” (Takeda Pharmaceutical Company Limited, priority 2004, published 2008).

What was measured:
[1] = Catecholamine level in the striatum after MPTP, PrRP knockout vs wild-type mice; format: in vivo, mouse; details: seven days after final administration, FIG. 3
Procedure: MPTP or saline for control was administered to PrRP knockout mice and wild-type mice in a manner similar to EXAMPLE 1. Seven days after the final administration, the striatal sites were immediately excised from the brains, frozen in liquid nitrogen and then stored at −80° C. Catecholamines such as Dopamine (DA), DOPAK, HVA, etc. were measured as follows. First, the excised corpus striata were homogenized in 0.2M perchloric acid containing 100 ng/mL isoproterenol (Sigma), centrifuged at 15,000 g for 20 minutes at 0° C., and filtered through a 0.22 μm filter. The final solution, 10 μL, was separated under the conditions at flow rate of 0.5 mL/min in 83% 0.1 M acetic acid-citrate buffer (pH 3.5)/17% methanol solution containing 190 mg/L SDS and 5 mg/L EDTA-2Na through EICOMPAK SC-50DS column (3.0 mm×150 mm, EICOM), and determined by electrochemical detection.

[2] = test system: striatal dopamine nerve fibers; assay: TH-positive fiber density in the striatum, MPTP after intraventricular antibody; details: C57BL/6J mice given normal mouse IgG i.c.v., then MPTP 20 mg/kg i.p. 4 times every 2 hours; P<0.05; FIG. 5
From the text: (§1) Male C57BL/6J mouse (CLEA Japan) of 14 weeks old was fixed on a brain stereotaxic apparatus under anesthesia with pentobarbital (Dainippon Pharmaceutical) and the skull surface was exposed. After the skull was dried with a drier, the coordinates of bregma were located to determine the coordinates of the left lateral ventricle (AP: −0.2 mm, lateral: +1.0 mm, depth: +2.5 mm from bregma). After a burr hole was made with a dental drill on the skull across the bregma from the location of the left lateral ventricle, anchor screws (EICOM) were implanted to fix a dental cement (GC Corp., Unifast II). A hole was made with a dental drill (Urawa Corp., Model: UC100) for guide cannulation to vertically insert into the skull on the left lateral ventricle, and a guide cannula (EICOM) was eased down toward the ventricle. After leakage of cerebrospinal fluids was confirmed, the guide cannula was fixed on the coordinates determined. The dental cement was used for fixation and applied until the anchor screws were embedded. After it was confirmed that the cement was dried, the mouse was released from the stereotaxic apparatus. […]
(§2) The antibody solution was diluted in Centriprep (Millipore). Absorbance (280 nm) was measured to determine the antibody concentration, and the antibody was diluted in aseptic PBS (−) to 9.97 mg/mL. […]

[3] = test system: PrRP knockout mice and wild-type mice; assay: Survival of PrRP knockout and wild-type mice after MPTP administration; format: in vivo, mouse; details: MPTP i.p. every 2 hours 4 times at 20 μg/kg, five days after administration
Procedure: MPTP (methyl-phenyl-tetrahydropyridine) known to produce animal models of Parkinson's disease was intraperitoneally administered to PrRP knockout mice and wild-type mice every 2 hours 4 times at the dose of […]. Five days after the administration, 11 out of 21 wild-type mice survived with a survival rate of 52%, whereas 10 out of 10 PrRP knockout mice survived, meaning that there was no dead animal and the survival rate was 100%.

nigral dopamine cells [4] = assay: Number of tyrosine hydroxylase positive (dopamine) cells in the substantia nigra after MPTP, PrRP knockout vs wild-type mice; format: in vivo, mouse; details: FIG. 1
From the text: It is known that MPTP (methyl-phenyl-tetrahydropyridine) causes degenerative loss of nigral dopamine cells to induce Parkinson's disease. Thus, the brains were excised from PrRP knockout mice and wild-type mice, to which MPTP or saline for control was given as in EXAMPLE 1, and then immersed and fixed in a 0.07M phosphate buffer (pH 7.4) containing 5% acrolein (Tokyo Chemical Industry). The brains were then immersed in 30% sucrose-containing phosphate buffered saline (PBS) for more than 2 days. The free-floating technique was used for immunohistochemistry. A frozen frontal section in 40 μm thickness of the brain was prepared using a cryomicrotome. Next, the section was soaked in and washed with PBS for water immersion, then treated with 0.5% sodium metaperiodate-containing PBS (20 minutes) to inactivate the endogenous peroxidase activity, and the aldehyde group was reduced by treatment with 1% sodium borohydride-containing PBS (20 minutes). In addition, non-specific reactions were blocked by treatment with 1% normal horse serum and 0.4% Triton X-100-containing BPS (TNBS) (an hour). […] The number of tyrosine hydroxylase positive cells, which are dopamine cells in the substantia nigra, was counted under an optical microscope.

nigral dopamine cells [5] = assay: Number of TH-positive cells in the substantia nigra pars compacta, MPTP after intraventricular antibody; details: C57BL/6J mice given normal mouse IgG i.c.v., then MPTP 20 mg/kg i.p. 4 times every 2 hours; P<0.001; FIG. 4
From the text: as §1, §2

[6] = Motor activity assessed with a rotarod after MPTP, PrRP knockout vs wild-type mice; format: in vivo, mouse; details: FIG. 2
Procedure: In order to examine the relation of Parkinson's disease to PrRP, decrement of motor activities known as symptoms of Parkinson's disease induced by administration of MPTP was compared between PrRP knockout mice and wild-type mice. The motor activity of each mouse was assessed with a rotarod. […] Turning to the PrRP knockout mice, there was no difference between the group administered with MPTP and the group administered with saline for control, and the motor activity was normal (FIG. 2). These phenomena reveal that onset of Parkinson's disease induced by MPTP was suppressed in the PrRP knockout mice.

CN1CC=C(c2ccccc2)CC1 [MPTP]
striatal dopamine (DA), DOPAC and HVA levels after MPTP ([1]; PrRP knockout mice): the degree of the decrease was smaller
striatal dopamine (DA), DOPAC and HVA levels after MPTP ([1]; wild-type mice): decreased markedly
striatal dopamine nerve fibers (image analysis), vs saline group [2]: significant decrease
survival rate ([3]; PrRP knockout mice, 10 out of 10 survived): 100%
survival rate ([3]; wild-type mice, 11 out of 21 survived): 52%
decrease in number of tyrosine hydroxylase positive cells in the substantia nigra, MPTP group vs saline group (nigral dopamine cells [4]; PrRP knockout mice, no significant change): about 10%
decrease in number of tyrosine hydroxylase positive cells in the substantia nigra, MPTP group vs saline group (nigral dopamine cells [4]; wild-type mice, significant): about 60%
dopamine cells in the substantia nigra pars compacta, vs saline group (nigral dopamine cells [5]): significant decrease
motor activity (rotarod), MPTP group vs saline group ([6]; PrRP knockout mice): no difference
motor activity (rotarod), MPTP group vs saline group ([6]; wild-type mice): markedly decreased
